Patent US20230358737A1, “CONTINUOUSLY CHEMICALLY ENHANCED APTAMER SENSORS” (University of Cincinnati, priority 2020, published 2023)
Values after ≈ are worked out from the molar mass of the structure shown.

Tests used:
[1] = equivalent diffusion distance through oil-membrane compared to water (calculation); assay type: physicochemical
Text: For this reason, the present inventors chose to use 11 μm thick polycarbonate track-etch membranes instead of thicker hydrophobic membranes such as conventional porous Teflon films (z=10s to 100s of μm). The oil wicks into and remains in the track-etch membrane pores because of its lower interfacial surface tension with the polycarbonate than the water has with polycarbonate. […] The diffusion coefficient of an analyte is dependent on the viscosity of the fluid it is diffusing through. Therefore, an important design element for the oil is to have a low viscosity (diffusion coefficient is inversely proportional to the viscosity of the oil [Walter, A.; Gutknecht, J. Permeability of Small Nonelectrolytes through Lipid Bilayer Membranes. J. Membr. Biol. 1986, 90 (3), 207-217. https://doi.org/10.1007/BF01870127]. Consider an informative example related to the materials used here. The optimal track-etch membranes for this work (see Table 1-below) have an 11 μm membrane thickness and 15.7% porosity, which is equivalent to the analyte having to diffuse through a uniform 70 μm of oil (11 μm/0.157). Now consider castor oil, with a viscosity about 730 times greater than that of water (see Table 2-below). An 11 μm thick castor oil membrane would then be equivalent to a 51,170 μm thick water diffusion distance (11 μum/0.157*730). Alternatively, using a low viscosity oil, such as 1-decanol, the 11 μm thick oil-membrane would have an equivalent thickness of only 945 μm diffusion distance through water (see Table 2).

[2] = cited from earlier work; for LogK (octanol over water): Table 3, ratio of concentration of the oil in octanol and water at equilibrium
[3] = cited from earlier work; for Viscosity at 25° C.: Table 3
[4] = cited from earlier work
[5] = cited from earlier work; remark: listed apart in the source

Structure (SMILES): CCCCCCCCCCO [1-Decanol]
- Equivalent water thickness ([1]; pore size 0.1 μm, open area 3.1%, thickness 6 μm): 26,10 μm
- Equivalent water thickness ([1]; pore size 0.2 μm, open area 9.4%, thickness 10 μm): 1,434 μm
- Equivalent water thickness ([1]; pore size 0.4 μm, open area 12.6%, thickness 10 μm): 1,070 μm
- Equivalent water thickness ([1]; pore size 1.0 μm, open area 15.7%, thickness 11 μm): 945 μm
- Equivalent water thickness ([1]; pore size 3.0 μm, open area 14.1%, thickness 9 μm): 861 μm
- Log P ([2]; Table 2): 5
- LogK (octanol over water) [2]: 4.57
- Viscosity ([3]; Table 2): 12 cP
- Viscosity at 25° C. [3]: 12 cP
- Vapor pressure at 25° C. [4]: 0.00851 mmHg

Structure (SMILES): CCCCCCCCOCCCCCCCC [Dioctyl ether]
- LogK (octanol over water) [2]: 6.9
- Viscosity at 25° C. [3]: 0.224 cP
- Vapor pressure at 25° C. [4]: 0.005 mmHg

Structure (SMILES): CCCCCCCCCCCCS [Dodecane thiol]
- LogK (octanol over water) [2]: 6.1
- Vapor pressure at 25° C. [4]: 0.000015 mmHg
- Solubility in water [5]: <0.2 µg/mL

Structure (SMILES): CCCCCCCC/C=C\CCCCCCCC(=O)O [Oleic acid]
- LogK (octanol over water) [2]: 7.64
- Viscosity at 25° C. [3]: 27.64 cP
- Vapor pressure at 25° C. [4]: 0.0000005 mmHg
- Solubility in water [5]: 0.01 µg/mL (≈ 0.0354 µM)

Structure (SMILES): CCCCCCCCCCCCCC [Tetradecane]
- LogK (octanol over water) [2]: 8.19
- Viscosity at 25° C. [3]: 2.13 cP
- Vapor pressure at 25° C. [4]: 0.0369 mmHg
- Solubility in water [5]: 0.00033 µg/mL (≈ 0.00166 µM)

Structure (SMILES): CC1=C(C/C=C(\C)CCC[C@H](C)CCC[C@H](C)CCCC(C)C)C(=O)c2ccccc2C1=O [Vitamin K1]
- LogK (octanol over water) [2]: 10.9
